This is an account of results in US7091238B1, “Thienylhydrazon with digitalis-like properties (positive inotropic effects)” (University of Maryland, priority 1999, dated 2006).

One assay relates to rat thoracic aorta. The settings on record: reported by Delpy and Gouville (1996); cited from earlier work.
For assay [1], the system named is neuromuscular transmission. Briefly: Contractions of gastrocnemius muscle induced by stimulation of the sciatic nerve. It counts as in vivo. The note with it: rat gastrocnemius. Here is the method: FIG. 30. Records of contractions induced by stimulation of the sciatic nerve of equilibrated rat gastrocnemius muscles and of arterial pressure. In control, contractions were induced by intravenous injection of DMSO ([…]). LASSBio-294 was administered in DMSO. Calibration: Horizontal, 1 cm=24 s; Vertical 2 g=100 mm Hg.
FIG. 31. Records of contractions of rat gastrocnemius muscles induced by stimulation of the sciatic nerve and of arterial pressure. For control, contraction was induced by intravenous injection of […] (0.04 ml). LASSBio-294 was administered in DMSO.

Consider `CCCOc1ccc(NS(C)(=O)=O)cc1-c1nc2c(c(C)nn2C)c(=O)[nH]1` [DMPPO], for which the “relaxant effect after removal of endothelium” value in the assay on rat thoracic aorta is “lost its effect”.
As to `C=CC[N@@+]12CC[C@@]34c5ccccc5N5/C=C6/[C@H]7C[C@H]8[C@@]9(CC[N@@+]8(CC=C)C/C7=C/CO)c7ccccc7N(/C=C(/[C@@H](C[C@@H]31)/C(=C\CO)C2)[C@H]54)[C@@H]69.[Cl-].[Cl-]` [alloferine, reference compound], the “depression of muscle contraction (test of functionality of the model)” value in assay [1] was “depression of muscle contraction”.
